{
  "source": "patent US10670605B2",
  "about": "“Cysteine reactive probes and uses thereof” (The Scripps Research Institute, priority 2015, dated 2020)",
  "experiment_in_all_cases": "Competitive isoTOP-ABPP in situ (fragment-treated cells)",
  "format_in_all_cases": "cell-based",
  "key": {"[1]": {"biological_target": "cysteines in MDA-MB-231 and Ramos cells (Homo sapiens, UniProt O75150)", "sequence (O75150 whole entry)": "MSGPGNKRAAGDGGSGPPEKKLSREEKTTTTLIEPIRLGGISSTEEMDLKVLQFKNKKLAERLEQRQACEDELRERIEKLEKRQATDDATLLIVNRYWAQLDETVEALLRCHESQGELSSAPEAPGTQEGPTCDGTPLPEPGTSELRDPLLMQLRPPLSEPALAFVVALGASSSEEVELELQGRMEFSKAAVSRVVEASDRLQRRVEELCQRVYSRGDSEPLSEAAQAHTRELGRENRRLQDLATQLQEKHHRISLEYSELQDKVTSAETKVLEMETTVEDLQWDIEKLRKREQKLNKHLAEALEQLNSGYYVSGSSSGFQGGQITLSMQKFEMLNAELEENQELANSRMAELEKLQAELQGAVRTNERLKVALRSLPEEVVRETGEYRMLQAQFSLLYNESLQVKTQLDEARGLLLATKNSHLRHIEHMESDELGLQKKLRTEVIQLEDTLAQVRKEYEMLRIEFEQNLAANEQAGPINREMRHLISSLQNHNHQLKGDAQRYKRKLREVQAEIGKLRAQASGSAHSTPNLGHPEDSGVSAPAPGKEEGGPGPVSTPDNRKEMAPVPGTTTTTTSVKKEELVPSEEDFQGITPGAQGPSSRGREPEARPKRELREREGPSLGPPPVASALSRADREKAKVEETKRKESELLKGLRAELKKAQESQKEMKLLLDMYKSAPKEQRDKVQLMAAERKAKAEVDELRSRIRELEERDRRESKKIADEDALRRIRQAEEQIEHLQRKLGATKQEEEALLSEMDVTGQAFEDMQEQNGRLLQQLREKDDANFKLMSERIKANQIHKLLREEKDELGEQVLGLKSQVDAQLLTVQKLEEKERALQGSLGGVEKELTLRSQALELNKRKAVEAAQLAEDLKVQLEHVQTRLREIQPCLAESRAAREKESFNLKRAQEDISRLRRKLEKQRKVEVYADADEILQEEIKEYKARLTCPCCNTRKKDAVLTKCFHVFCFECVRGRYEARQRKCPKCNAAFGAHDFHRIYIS", "conditions": "200 μM, insitu"}, "[2]": {"biological_target": "cysteines in MDA-MB-231 and Ramos cells (Homo sapiens, UniProt Q92616)", "sequence (Q92616 whole entry)": "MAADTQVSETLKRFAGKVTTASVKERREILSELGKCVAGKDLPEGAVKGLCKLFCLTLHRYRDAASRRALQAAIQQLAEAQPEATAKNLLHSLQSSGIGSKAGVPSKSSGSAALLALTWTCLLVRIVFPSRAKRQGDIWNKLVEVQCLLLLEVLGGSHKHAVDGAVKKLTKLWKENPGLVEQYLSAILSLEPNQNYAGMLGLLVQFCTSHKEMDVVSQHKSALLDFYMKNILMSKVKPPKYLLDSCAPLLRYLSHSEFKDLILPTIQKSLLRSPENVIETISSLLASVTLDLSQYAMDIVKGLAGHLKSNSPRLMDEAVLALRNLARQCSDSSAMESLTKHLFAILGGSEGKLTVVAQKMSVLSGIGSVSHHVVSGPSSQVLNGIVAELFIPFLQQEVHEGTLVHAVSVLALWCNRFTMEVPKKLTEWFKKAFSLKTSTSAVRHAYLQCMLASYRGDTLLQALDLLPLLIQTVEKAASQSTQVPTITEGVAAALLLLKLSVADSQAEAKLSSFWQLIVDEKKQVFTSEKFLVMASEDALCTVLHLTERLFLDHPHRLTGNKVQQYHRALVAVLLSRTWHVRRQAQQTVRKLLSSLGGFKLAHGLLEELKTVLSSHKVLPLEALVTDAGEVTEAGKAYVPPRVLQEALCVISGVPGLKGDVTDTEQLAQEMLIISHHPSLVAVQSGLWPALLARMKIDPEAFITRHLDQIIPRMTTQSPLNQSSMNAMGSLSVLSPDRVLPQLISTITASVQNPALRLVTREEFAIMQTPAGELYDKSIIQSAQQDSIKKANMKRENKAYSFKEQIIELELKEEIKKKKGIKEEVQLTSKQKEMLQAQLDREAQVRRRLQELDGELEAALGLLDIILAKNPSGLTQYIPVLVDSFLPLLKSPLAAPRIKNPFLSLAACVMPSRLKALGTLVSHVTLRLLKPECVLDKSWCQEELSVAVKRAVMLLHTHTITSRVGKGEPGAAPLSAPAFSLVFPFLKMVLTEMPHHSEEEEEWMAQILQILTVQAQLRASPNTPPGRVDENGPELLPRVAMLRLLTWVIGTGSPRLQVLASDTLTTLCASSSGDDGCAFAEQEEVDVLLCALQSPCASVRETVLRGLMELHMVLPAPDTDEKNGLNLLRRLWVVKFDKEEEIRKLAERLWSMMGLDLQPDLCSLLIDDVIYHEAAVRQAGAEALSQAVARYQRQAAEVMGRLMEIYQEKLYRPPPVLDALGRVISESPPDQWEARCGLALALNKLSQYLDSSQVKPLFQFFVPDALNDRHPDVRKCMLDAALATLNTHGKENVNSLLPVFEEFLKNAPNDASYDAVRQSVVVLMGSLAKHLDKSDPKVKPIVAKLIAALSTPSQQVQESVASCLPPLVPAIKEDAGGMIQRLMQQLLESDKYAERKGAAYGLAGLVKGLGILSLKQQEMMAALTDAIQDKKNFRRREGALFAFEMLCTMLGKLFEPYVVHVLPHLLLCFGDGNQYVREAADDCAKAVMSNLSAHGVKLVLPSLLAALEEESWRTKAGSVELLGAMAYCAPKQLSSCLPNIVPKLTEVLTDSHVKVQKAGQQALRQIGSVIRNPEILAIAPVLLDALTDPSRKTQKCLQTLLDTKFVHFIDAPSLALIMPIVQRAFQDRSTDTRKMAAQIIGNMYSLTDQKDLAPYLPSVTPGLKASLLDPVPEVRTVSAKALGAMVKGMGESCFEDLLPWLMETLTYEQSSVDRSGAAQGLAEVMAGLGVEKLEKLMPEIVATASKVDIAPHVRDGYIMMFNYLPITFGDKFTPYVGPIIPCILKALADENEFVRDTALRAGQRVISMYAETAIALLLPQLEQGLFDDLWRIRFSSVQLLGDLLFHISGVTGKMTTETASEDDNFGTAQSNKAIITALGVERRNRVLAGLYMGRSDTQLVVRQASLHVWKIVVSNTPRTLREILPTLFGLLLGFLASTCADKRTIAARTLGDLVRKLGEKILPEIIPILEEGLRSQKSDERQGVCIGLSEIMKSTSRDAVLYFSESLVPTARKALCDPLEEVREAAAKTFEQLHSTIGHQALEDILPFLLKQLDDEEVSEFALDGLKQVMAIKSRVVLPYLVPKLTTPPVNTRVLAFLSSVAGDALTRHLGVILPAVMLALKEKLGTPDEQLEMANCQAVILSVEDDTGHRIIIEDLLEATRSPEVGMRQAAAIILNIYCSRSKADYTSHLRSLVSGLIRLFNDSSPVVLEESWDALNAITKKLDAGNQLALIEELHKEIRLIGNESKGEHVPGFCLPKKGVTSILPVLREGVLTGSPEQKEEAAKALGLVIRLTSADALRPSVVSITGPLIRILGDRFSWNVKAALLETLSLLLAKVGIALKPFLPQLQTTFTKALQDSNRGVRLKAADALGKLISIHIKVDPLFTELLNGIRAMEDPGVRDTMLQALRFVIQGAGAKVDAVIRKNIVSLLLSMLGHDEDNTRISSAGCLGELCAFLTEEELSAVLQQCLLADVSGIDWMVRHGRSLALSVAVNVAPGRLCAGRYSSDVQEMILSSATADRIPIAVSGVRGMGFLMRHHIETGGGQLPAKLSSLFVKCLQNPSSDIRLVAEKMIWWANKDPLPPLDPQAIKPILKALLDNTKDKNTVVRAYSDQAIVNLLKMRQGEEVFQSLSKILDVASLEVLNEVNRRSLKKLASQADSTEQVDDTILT", "conditions": "200 μM, insitu"}, "[3]": {"biological_target": "cysteines in MDA-MB-231 and Ramos cells (Homo sapiens, UniProt Q00610)", "conditions": "200 μM, insitu, 231"}, "[4]": {"biological_target": "T1, cysteines in MDA-MB-231 and Ramos cells (Homo sapiens, UniProt Q9C0I1)", "T1 sequence (Q9C0I1 1-747)": "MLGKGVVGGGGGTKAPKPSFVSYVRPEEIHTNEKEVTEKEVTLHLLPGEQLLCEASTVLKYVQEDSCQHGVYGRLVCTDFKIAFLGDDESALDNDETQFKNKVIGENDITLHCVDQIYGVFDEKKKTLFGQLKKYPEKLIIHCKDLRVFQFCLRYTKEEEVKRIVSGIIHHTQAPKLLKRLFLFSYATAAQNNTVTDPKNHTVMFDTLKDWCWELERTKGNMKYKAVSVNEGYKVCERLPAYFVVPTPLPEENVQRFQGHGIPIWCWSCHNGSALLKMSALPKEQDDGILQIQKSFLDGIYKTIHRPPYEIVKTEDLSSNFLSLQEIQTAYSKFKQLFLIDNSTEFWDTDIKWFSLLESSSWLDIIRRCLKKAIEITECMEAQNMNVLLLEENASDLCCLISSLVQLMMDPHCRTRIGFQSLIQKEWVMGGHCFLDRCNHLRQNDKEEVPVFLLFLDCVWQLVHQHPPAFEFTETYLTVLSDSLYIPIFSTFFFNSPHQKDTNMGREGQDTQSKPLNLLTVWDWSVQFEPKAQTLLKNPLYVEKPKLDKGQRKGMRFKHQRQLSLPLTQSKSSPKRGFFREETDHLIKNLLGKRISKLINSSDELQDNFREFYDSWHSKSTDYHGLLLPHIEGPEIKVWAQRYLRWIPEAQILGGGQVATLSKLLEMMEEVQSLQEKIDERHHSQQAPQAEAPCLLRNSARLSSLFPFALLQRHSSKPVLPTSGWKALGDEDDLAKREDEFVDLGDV", "conditions": "200 μM, insitu"}, "[5]": {"biological_target": "cysteines in MDA-MB-231 and Ramos cells (Homo sapiens, UniProt Q9Y5T5)", "conditions": "200 μM, insitu"}, "[6]": {"biological_target": "T2, cysteines in MDA-MB-231 and Ramos cells (Homo sapiens, UniProt P10398)", "T2 sequence (P10398 1-606)": "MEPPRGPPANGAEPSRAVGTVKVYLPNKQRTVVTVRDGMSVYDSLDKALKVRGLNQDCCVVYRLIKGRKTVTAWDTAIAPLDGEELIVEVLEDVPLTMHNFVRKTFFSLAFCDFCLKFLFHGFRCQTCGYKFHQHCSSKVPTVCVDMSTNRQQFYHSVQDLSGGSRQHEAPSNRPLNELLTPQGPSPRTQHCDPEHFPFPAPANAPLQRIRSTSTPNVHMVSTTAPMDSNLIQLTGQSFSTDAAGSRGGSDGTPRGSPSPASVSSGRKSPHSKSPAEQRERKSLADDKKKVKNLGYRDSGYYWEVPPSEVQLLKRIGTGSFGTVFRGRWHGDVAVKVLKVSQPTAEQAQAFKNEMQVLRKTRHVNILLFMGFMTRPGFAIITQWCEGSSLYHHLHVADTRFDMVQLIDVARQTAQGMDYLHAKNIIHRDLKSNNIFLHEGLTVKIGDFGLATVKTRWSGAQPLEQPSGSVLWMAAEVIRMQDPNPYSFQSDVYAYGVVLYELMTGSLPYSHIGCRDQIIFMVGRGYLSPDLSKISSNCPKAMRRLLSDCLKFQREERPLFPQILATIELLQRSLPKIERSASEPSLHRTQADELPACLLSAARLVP", "conditions": "200 μM, insitu"}, "[7]": {"biological_target": "T3, cysteines in MDA-MB-231 and Ramos cells (Homo sapiens, UniProt Q02556)", "T3 sequence (Q02556 1-426)": "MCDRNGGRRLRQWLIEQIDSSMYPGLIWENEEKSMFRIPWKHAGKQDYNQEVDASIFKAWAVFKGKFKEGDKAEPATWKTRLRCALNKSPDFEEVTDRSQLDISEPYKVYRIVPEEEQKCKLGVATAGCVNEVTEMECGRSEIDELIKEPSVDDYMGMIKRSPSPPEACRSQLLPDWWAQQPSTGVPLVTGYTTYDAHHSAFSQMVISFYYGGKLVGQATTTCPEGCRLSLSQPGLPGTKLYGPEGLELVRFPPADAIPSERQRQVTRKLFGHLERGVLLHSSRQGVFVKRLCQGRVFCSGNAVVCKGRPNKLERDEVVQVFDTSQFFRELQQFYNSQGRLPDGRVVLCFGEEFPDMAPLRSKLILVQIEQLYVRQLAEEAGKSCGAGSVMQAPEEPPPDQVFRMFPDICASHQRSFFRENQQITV", "conditions": "200 μM, insitu, ramos"}, "[8]": {"biological_target": "cysteines in MDA-MB-231 and Ramos cells (Homo sapiens, UniProt Q5UIP0)"}, "[9]": {"biological_target": "cysteines in MDA-MB-231 and Ramos cells (Homo sapiens, UniProt Q15003)", "sequence (Q15003 whole entry)": "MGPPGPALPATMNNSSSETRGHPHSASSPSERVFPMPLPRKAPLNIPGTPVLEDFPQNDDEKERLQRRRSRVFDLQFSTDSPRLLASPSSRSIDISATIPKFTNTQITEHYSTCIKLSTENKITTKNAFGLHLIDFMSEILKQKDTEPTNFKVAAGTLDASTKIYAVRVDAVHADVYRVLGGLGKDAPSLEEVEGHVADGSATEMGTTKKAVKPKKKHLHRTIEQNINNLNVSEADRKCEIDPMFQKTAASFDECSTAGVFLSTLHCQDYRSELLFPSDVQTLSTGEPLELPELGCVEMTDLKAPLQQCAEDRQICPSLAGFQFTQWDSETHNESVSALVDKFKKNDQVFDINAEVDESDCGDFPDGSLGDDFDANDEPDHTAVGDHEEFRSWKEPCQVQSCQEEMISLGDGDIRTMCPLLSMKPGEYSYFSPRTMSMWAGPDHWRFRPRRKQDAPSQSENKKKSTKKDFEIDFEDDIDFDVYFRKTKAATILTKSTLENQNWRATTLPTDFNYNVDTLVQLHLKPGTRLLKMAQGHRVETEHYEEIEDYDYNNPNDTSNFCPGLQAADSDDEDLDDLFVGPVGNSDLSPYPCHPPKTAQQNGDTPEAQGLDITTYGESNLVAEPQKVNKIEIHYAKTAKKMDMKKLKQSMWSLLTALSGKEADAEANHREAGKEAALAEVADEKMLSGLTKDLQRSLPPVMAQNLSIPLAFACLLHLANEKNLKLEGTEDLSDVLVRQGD"}},
  "data": [
    {"smiles": "Cc1ccc(C=C(C#N)C(=O)NCCN2CCOCC2)cc1", "note": "[compound 41]", "values": [
      {"measurement": "isoTOP-ABPP ratio O75150_C890", "setting": "[1]; 231", "value": 1.3},
      {"measurement": "isoTOP-ABPP ratio Q92616_C1692", "setting": "[2]; 231", "value": 0.7}
    ]},
    {"smiles": "O=C(CCl)NC(=O)NC12CC3CC(CC(C3)C1)C2", "note": "[compound 12]", "values": [
      {"measurement": "isoTOP-ABPP ratio, cysteine Q00610_C870", "setting": "[3]", "value": 0.9},
      {"measurement": "isoTOP-ABPP ratio, cysteine O75150_C890", "setting": "[1]; 231", "value": 1.1},
      {"measurement": "isoTOP-ABPP ratio, cysteine Q9C0I1_C152", "setting": "[4]; 231", "value": 20.0}
    ]},
    {"smiles": "O=C(CCl)NCCc1c[nH]c2ccccc12", "note": "[compound 13]", "values": [
      {"measurement": "isoTOP-ABPP ratio, cysteine Q00610_C870", "setting": "[3]", "value": 1.7},
      {"measurement": "isoTOP-ABPP ratio, cysteine Q9C0I1_C152", "setting": "[4]; ramos", "value": 6.5},
      {"measurement": "isoTOP-ABPP ratio, cysteine Q92616_C1692", "setting": "[2]; ramos", "value": 0.9},
      {"measurement": "isoTOP-ABPP ratio, cysteine Q9Y5T5_C205", "setting": "[5]; ramos", "value": 20.0},
      {"measurement": "isoTOP-ABPP ratio, cysteine P10398_C597", "setting": "[6]; ramos", "value": 1.0},
      {"measurement": "isoTOP-ABPP ratio, cysteine Q02556_C306", "setting": "[7]", "value": 1.5}
    ]},
    {"smiles": "COc1ccc(C2CC(c3cccs3)=NN2C(=O)CCl)cc1", "note": "(centres unmarked) [compound 4]", "values": [
      {"measurement": "isoTOP-ABPP reactivity Q5UIP0_C2298 RIF1", "setting": "[8]; 100 μM in situ 231", "value": 20.0},
      {"measurement": "isoTOP-ABPP reactivity Q15003_C418 NCAPH", "setting": "[9]; 100 μM in situ 231", "value": 20.0}
    ]},
    {"smiles": "O=C(CCl)NC12CC3CC(CC(C3)C1)C2", "note": "[compound 21]", "values": [
      {"measurement": "isoTOP-ABPP ratio, cysteine Q9C0I1_C152", "setting": "[4]; 231", "value": 0.7},
      {"measurement": "isoTOP-ABPP ratio, cysteine Q5UIP0_C2298", "setting": "[8]; 200 μM, insitu, 231", "value": 0.9},
      {"measurement": "isoTOP-ABPP ratio, cysteine Q9Y5T5_C205", "setting": "[5]; 231", "value": 0.9},
      {"measurement": "isoTOP-ABPP ratio, cysteine P10398_C597", "setting": "[6]; 231", "value": 0.7}
    ]},
    {"smiles": "Cn1cc(S(=O)(=O)N2CCOCC2)cc1C(=O)NC(=O)CCl", "note": "[compound 11]", "values": [
      {"measurement": "isoTOP-ABPP ratio, cysteine Q5UIP0_C2298", "setting": "[8]; 100 μM in situ 231", "value": 1.3},
      {"measurement": "isoTOP-ABPP ratio, cysteine Q15003_C418", "setting": "[9]; 100 μM in situ 231", "value": "1 .6"}
    ]},
    {"smiles": "C=CC(=O)Nc1cc(F)c(N2CCN(C(=O)OC(C)(C)C)CC2)c(F)c1", "note": "[compound 38]", "values": [
      {"measurement": "isoTOP-ABPP ratio Q00610_C870", "setting": "[3]", "value": 20.0},
      {"measurement": "isoTOP-ABPP ratio, Q9Y5T5_C205", "setting": "[5]; 231", "value": 1.5}
    ]},
    {"smiles": "CC1CCc2ccccc2N1C(=O)CCl", "note": "(centres unmarked) [compound 45]", "values": [
      {"measurement": "isoTOP-ABPP ratio Q15003_C418", "setting": "[9]; 200 μM, insitu, 231", "value": 20.0}
    ]},
    {"smiles": "COc1ccc2c(c1)CCCN2C(=O)CCl", "note": "[compound 2]", "values": [
      {"measurement": "isoTOP-ABPP reactivity Q92616_C1692 GCN1L1", "setting": "[2]; 231", "value": 1.4},
      {"measurement": "isoTOP-ABPP reactivity Q15003_C418 NCAPH", "setting": "[9]; 200 μM, insitu, 231", "value": 20.0}
    ]},
    {"smiles": "CC(C)CCOCCNC(=O)CCl", "note": "[compound 27]", "values": [
      {"measurement": "isoTOP-ABPP ratio O75150_C890", "setting": "[1]; 231", "value": 1.2},
      {"measurement": "isoTOP-ABPP ratio Q92616_C1692", "setting": "[2]; 231", "value": 0.5},
      {"measurement": "isoTOP-ABPP ratio, Q9Y5T5_C205", "setting": "[5]; 231", "value": 1.2}
    ]},
    {"smiles": "O=C(CCl)N1CCN(S(=O)(=O)c2ccccc2F)CC1", "note": "[compound 10]", "values": [
      {"measurement": "isoTOP-ABPP ratio, cysteine O75150_C890", "setting": "[1]; ramos", "value": 4.2},
      {"measurement": "isoTOP-ABPP ratio, cysteine Q5UIP0_C2298", "setting": "[8]; 200 μM, insitu, 231", "value": 20.0},
      {"measurement": "isoTOP-ABPP ratio, cysteine P10398_C597", "setting": "[6]; 231", "value": 1.4}
    ]},
    {"smiles": "O=C(CCl)N1CCN(CC(=O)N2CCOCC2)CC1", "note": "[compound 29]", "values": [
      {"measurement": "isoTOP-ABPP ratio Q9C0I1_C152", "setting": "[4]; ramos", "value": 4.6},
      {"measurement": "isoTOP-ABPP ratio P10398_C597", "setting": "[6]; ramos", "value": 1.2},
      {"measurement": "isoTOP-ABPP ratio Q15003_C418", "setting": "[9]; 200 μM, insitu, ramos", "value": 1.4},
      {"measurement": "isoTOP-ABPP ratio, Q02556_C306", "setting": "[7]", "value": 1.4}
    ]},
    {"smiles": "C=CC(=O)N(Cc1cccnc1)c1cc(C(F)(F)F)cc(C(F)(F)F)c1", "note": "[compound 31]", "values": [
      {"measurement": "isoTOP-ABPP ratio O75150_C890", "setting": "[1]; 231", "value": 0.7},
      {"measurement": "isoTOP-ABPP ratio Q92616_C1692", "setting": "[2]; 231", "value": 0.6},
      {"measurement": "isoTOP-ABPP ratio Q92616_C1692", "setting": "[2]; ramos", "value": 2.0},
      {"measurement": "isoTOP-ABPP ratio, Q02556_C306", "setting": "[7]", "value": 2.0}
    ]}
  ]
}
